“Also recorded” adds a separate entry of the source. Marks after values point to notes of the source that are not given here.
Assays:
phospholipase A2 (PLA2) = assay: Assay for inhibition against PLA2; assay type: biochemical; conditions: PLA2 enzyme 5 μg/mL, pH 8.2, 40 °C, 30 min, OD 495 nm; three repeats
Procedure: As a regulator associated with the stability of the liver cell membrane, phospholipase A2 (PLA2) is a promising target for hepatoprotective drug development.
The PLA2 inhibitory assays of compounds 1–11 and the positive drug diethylenetriaminepentaacetic acid (Purchased from Aladdin, Los Angeles, CA, USA, purity > 98.0%) were carried out according to the literature. First of all, each tube was added with 1 mL fresh substrate buffer solution (pH = 8.2). After that, 50 μL tested compounds at various concentrations were placed at reaction tube and blank tube, respectively. As for control tube, 50 μL deionized water was instead. Then each tube incubated at 40 °C for 10 minutes. The reaction tube and blank tube were followed by the treatment with PLA2 enzyme (5 μL) at the concentration of 5 μg/mL. Before put them into the incubator at the temperature of 40 °C to react 30 minutes, the content of the tube should be fully blending. The optical density value of each tube was then read in an ELISA plate reader using a wavelength of 495 nm. The IC50 values were calculated from concentration-response curves by means of the GraphPad Prism 5.0 Software (San Diego, CA, USA). Each experiment was repeated three times to get the mean values.

[1] = system: primary rat hepatocytes injured by D-GalN; assay: Hepatoprotective activity in primary rat hepatocytes injured by D-GalN (AST, LDH levels); assay type: cell-based; conditions: for AST / LDH: primary rat hepatocytes, 2 mM D-GalN, mean ± SD, n = 3; for AST: model 17.1 ± 2.4, control 6.9 ± 1.7; for LDH: model 253.5 ± 13.5, control 157.4 ± 11.7; for hepatoprotective activity (result in words): primary rat hepatocytes injured by D-GalN, compared to model group or between compounds
Procedure: All the separated compounds were assessed for their hepatoprotective activities against the increase of AST and LDH levels in primary rat hepatocytes injured by D-GalN. The maximum nontoxic concentrations of tested compounds on primary rat hepatocytes were in the range of 120–240 μM. […] (Table 2).
Isolated rat hepatocytes were prepared from male Wistar rats by a collagenase perfusion technique as described previously. The D-GalN concentration used for cell culture treatment was previously determined according to a modification of the method of Morikawa et al.. The cultured cells in logarithmic growth phase were made into a single-cell suspension and seeded in 96-well plates (1 × 10^4 cells/well) in the DMEM/F 12 with 2% FBS complete medium for 24 h at 37 °C. Then, the hepatocytes were exposed to 2 mM D-GalN for 2 h to induce hepatotoxocity. The medium with silibin meglumine (as positive drug, purity 95.6%, Hunan Xieli Pharmaceutical Co., Ltd., Zhuzhou, China) and different concentrations of test compounds was mixed in cell medium (final test compounds concentration were 30 μM, 60 μM and 120 μM, respectively), and incubated for 24 h. The obtained reacted supernatant was directly used to detect ALT and AST levels. The control group was a set of cells maintained in culture medium, while the model group was a set of cells maintained in culture medium and treated only with D-GalN. All data are expressed as the mean ± SD of at least three independent experiments as indicated. The test for the paired samples was used to determine statistical difference between parameters. These differences were considered significant for p < 0.05 or 0.01.

Structure (SMILES): CC12CCC(CO)(C(=O)O)CC1C1=CC(=O)C3C4(C)CCC(OC5OC(C(=O)O)C(O)C(O)C5OC5OC(C(=O)O)C(O)C(O)C5O)C(C)(C)C4CCC3(C)C1(C)CC2 [Compound 1, 3β-O-[β-D-glucuronopyranosyl-(1→2)-β-D-glucuronopyranosyl]-29-hydroxyglycyrrhetic acid]
- IC50 (phospholipase A2 (PLA2)): > 50 µM

Structure (SMILES): CC12CCC3(C)C(=CC(=O)C4C5(C)CCC(OC6OC(C(=O)O)C(O)C(O)C6OC6OC(C(=O)O)C(O)C(O)C6O)C(C)(C)C5CCC43C)C1CC(C)(C(=O)O)C(O)C2 (stereo not drawn) [Compound 2, macedonoside A]
- AST ([1]; 30 μM compound): 14.6 ± 3.1 U·L^−1
- LDH ([1]; 30 μM compound): 231.0 ± 18.3 ^c U·L^−1
- AST ([1]; 60 μM compound): 13.1 ± 2.1 ^c U·L^−1
- LDH ([1]; 60 μM compound): 213.7 ± 19.6 ^d U·L^−1
- AST ([1]; 120 μM compound): 11.2 ± 1.9 ^d U·L^−1
- LDH ([1]; 120 μM compound): 215.9 ± 8.2 ^d U·L^−1
- hepatoprotective activity (result in words) [1]: notably lowered AST; also recorded: significant hepatoprotective activities
- IC50 (phospholipase A2 (PLA2)): 6.9 ± 0.5 µM

Structure (SMILES): CC1(C(=O)O)CCC2(C)CCC3(C)C(=CC(=O)C4C5(C)CCC(OC6OC(C(=O)O)C(O)C(O)C6OC6OC(C(=O)O)C(O)C(O)C6O)C(C)(CO)C5CCC43C)C2C1 [Compound 3, 3β-O-[β-D-glucuronpyranosyl-(1→2)-β-D-glucuron-pyranosyl]-24-hydroxy-18α-glycyrrhetic acid]
- AST ([1]; 30 μM compound): 13.3 ± 2.9 ^c U·L^−1
- LDH ([1]; 30 μM compound): 224.6 ± 21.4 ^c U·L^−1
- AST ([1]; 60 μM compound): 12.9 ± 3.2 ^d U·L^−1
- LDH ([1]; 60 μM compound): 208.6 ± 16.0 ^d U·L^−1
- AST ([1]; 120 μM compound): 10.8 ± 2.8 ^d U·L^−1
- LDH ([1]; 120 μM compound): 200.7 ± 15.1 ^d U·L^−1
- hepatoprotective activity (result in words) [1]: notably lowered AST; also recorded: higher activity than compound 4; also recorded: significant hepatoprotective activities
- IC50 (phospholipase A2 (PLA2)): 3.6 ± 0.3 µM

Structure (SMILES): CC1(C(=O)O)CCC2(C)CCC3(C)C(=CC(=O)C4C5(C)CCC(OC6OC(C(=O)O)C(O)C(O)C6OC6OC(C(=O)O)C(O)C(O)C6O)C(C)(CO)C5CCC43C)C2C1 (stereo not drawn) [Compound 4, licorice-saponin G2]
- AST ([1]; 30 μM compound): 14.8 ± 2.9 U·L^−1
- LDH ([1]; 30 μM compound): 237.2 ± 16.4 U·L^−1
- AST ([1]; 60 μM compound): 13.7 ± 2.6 ^c U·L^−1
- LDH ([1]; 60 μM compound): 232.7 ± 25.7 U·L^−1
- AST ([1]; 120 μM compound): 12.6 ± 2.8 ^c U·L^−1
- LDH ([1]; 120 μM compound): 224.9 ± 25.2 ^c U·L^−1
- hepatoprotective activity (result in words) [1]: notably lowered AST; also recorded: significant hepatoprotective activities
- IC50 (phospholipase A2 (PLA2)): 16.9 ± 0.3 µM

Structure (SMILES): CC12CC(OC1=O)C1(C)CCC3(C)C(=CC(=O)C4C5(C)CCC(OC6OC(C(=O)O)C(O)C(O)C6OC6OC(C(=O)O)C(O)C(O)C6O)C(C)(C)C5CCC43C)C1C2 (stereo not drawn) [Compound 5, licorice-saponin E2]
- hepatoprotective activity (result in words) [1]: significantly weaker hepatoprotective activities than the compound 2 and 11
- IC50 (phospholipase A2 (PLA2)): > 50 µM

Structure (SMILES): CC(=O)OC1CC(C)(C(=O)O)CC2C3=CC(=O)C4C5(C)CCC(OC6OC(C(=O)O)C(O)C(O)C6OC6OC(C(=O)O)C(O)C(O)C6O)C(C)(C)C5CCC4(C)C3(C)CCC12C (stereo not drawn) [Compound 6, 22β-acetoxyglycyrrhizin]
- AST ([1]; 30 μM compound): 16.5 ± 2.2 U·L^−1
- LDH ([1]; 30 μM compound): 242.8 ± 15.2 U·L^−1
- AST ([1]; 60 μM compound): 14.6 ± 3.0 U·L^−1
- LDH ([1]; 60 μM compound): 228.7 ± 14.0 ^c U·L^−1
- AST ([1]; 120 μM compound): 13.2 ± 2.7 ^c U·L^−1
- LDH ([1]; 120 μM compound): 221.7 ± 19.5 ^d U·L^−1
- hepatoprotective activity (result in words) [1]: notably lowered AST; also recorded: significant hepatoprotective activities
- IC50 (phospholipase A2 (PLA2)): 27.1 ± 0.9 µM

Structure (SMILES): CC1(C)C(OC2OC(C(=O)O)C(O)C(O)C2OC2OC(C(=O)O)C(O)C(O)C2O)CCC2(C)C1CCC1(C)C2C(=O)C=C2C3CC4(C(=O)O)CC(OC4=O)C3(C)CCC21C (stereo not drawn) [Compound 7, uralsaponin D]
- hepatoprotective activity (result in words) [1]: significantly weaker hepatoprotective activities than the compound 2 and 11
- IC50 (phospholipase A2 (PLA2)): 32.2 ± 0.5 µM

Structure (SMILES): CC12CC(OC1=O)C1(C)CCC3(C)C(=CC(=O)C4C5(C)CCC(OC6OC(C(=O)O)C(O)C(O)C6OC6OC(C(=O)O)C(O)C(O)C6O)C(C)(CO)C5CCC43C)C1C2 (stereo not drawn) [Compound 8, 24-hydroxylicorice-saponin E2]
- IC50 (phospholipase A2 (PLA2)): > 50 µM

Structure (SMILES): CC(=O)OC1CC(C)(C=O)CC2C3=CC(=O)C4C5(C)CCC(OC6OC(C(=O)O)C(O)C(O)C6OC6OC(C(=O)O)C(O)C(O)C6O)C(C)(C)C5CCC4(C)C3(C)CCC12C (stereo not drawn) [Compound 9, 22β-acetoxyglycyrrhaldehyde]
- IC50 (phospholipase A2 (PLA2)): > 50 µM

Structure (SMILES): CC1(C(=O)OC2OC(CO)C(O)C(O)C2O)CCC2(C)CCC3(C)C(=CC(=O)C4C5(C)CCC(OC6OC(C(=O)O)C(O)C(O)C6OC6OC(C(=O)O)C(O)C(O)C6O)C(C)(CO)C5CCC43C)C2C1 (stereo not drawn) [Compound 10, licorice-saponin A3]
- IC50 (phospholipase A2 (PLA2)): > 50 µM

Structure (SMILES): CC1(C)[C@@H](O[C@H]2O[C@H](C(=O)O)[C@@H](O)[C@H](O)[C@H]2O[C@@H]2O[C@H](C(=O)O)[C@@H](O)[C@H](O)[C@H]2O)CC[C@]2(C)[C@H]3C(=O)C=C4[C@@H]5C[C@@](C)(C(=O)O)CC[C@]5(C)CC[C@@]4(C)[C@]3(C)CC[C@@H]12 [Compound 11, glycyrrhizin]
- AST ([1]; 30 μM compound): 14.1 ± 2.1 ^c U·L^−1
- LDH ([1]; 30 μM compound): 236.3 ± 9.4 ^c U·L^−1
- AST ([1]; 60 μM compound): 13.0 ± 2.2 ^c U·L^−1
- LDH ([1]; 60 μM compound): 219.1 ± 19.3 ^d U·L^−1
- AST ([1]; 120 μM compound): 11.6 ± 1.8 ^d U·L^−1
- LDH ([1]; 120 μM compound): 207.8 ± 21.9 ^d U·L^−1
- hepatoprotective activity (result in words) [1]: notably lowered AST; also recorded: stronger activity than 1; also recorded: significant hepatoprotective activities
- IC50 (phospholipase A2 (PLA2)): 9.3 ± 0.8 µM

Structure (SMILES): O=C(O)CN(CCN(CC(=O)O)CC(=O)O)CCN(CC(=O)O)CC(=O)O [Diethylenetriaminepentaacetic acid, reference compound]
- IC50 (phospholipase A2 (PLA2)): 1.8 ± 0.1 µM

Structure (SMILES): CNCC(O)C(O)C(O)C(O)CO.COc1cc(C2Oc3cc(C4Oc5cc(O)cc(O)c5C(=O)C4O)ccc3OC2CO)ccc1O (stereo not drawn) [Silibinin Meglumine, reference compound]
- AST ([1]; 50 μM (positive drug)): 10.3 ± 2.2 ^d U·L^−1
- LDH ([1]; 50 μM (positive drug)): 219.1 ± 10.9 ^d U·L^−1

Reference: paper PMC6272637, “Hepatoprotective Triterpene Saponins from the Roots of Glycyrrhiza inflata” (Molecules, 2015)
